According to ChEMBL document CHEMBL5465560, “Selectivity Literature for EUbOPEN Chemogenomic Library” (2024):

How the values were obtained:
[1] = molecular target: P2Y purinoceptor 2 (Homo sapiens) (UniProt P41231); test: Selectivity interaction (Eurofins CEREP Diversity Profile (receptors and ion channels)) EUB0000279b P2RY2; conditions: at 10 µM
[2] = molecular target: Mitogen-activated protein kinase kinase kinase 4 (Homo sapiens) (UniProt Q9Y6R4); test: Selectivity interaction (KinomeScan (DiscoverX)) EUB0000666a MAP3K4; conditions: at 10 µM
[3] = molecular target: Mitogen-activated protein kinase 14 (Homo sapiens, UniProt Q16539); test: Selectivity interaction (Kinase panel (literature)) EUB0001199aCl MAPK14; conditions: at 1 µM
[4] = molecular target: Tyrosine-protein kinase Fer (Homo sapiens) (UniProt P16591); test: Selectivity interaction (ActivX KiNativ screen (kinase selectivity in THP-1 cell lysates)) EUB0000639a FER; type: subcellular; conditions: lysate, at 5 µM
Aurora kinase A = Aurora kinase A (Homo sapiens, UniProt O14965); test: Selectivity interaction (Radiometric kinase assay (using 10 uM ATP)) EUB0000601a STK6
[5] = molecular target: Tyrosine-protein kinase JAK1 (Homo sapiens, UniProt P23458); test: Selectivity interaction (KinomeScan (DiscoverX)) EUB0001049a JAK1; conditions: at 1 µM
[6] = molecular target: T1, Serine/threonine-protein kinase D2 (Homo sapiens) (UniProt Q9BZL6); test: Selectivity interaction (KinomeScan (DiscoverX)) EUB0001049a PRKD2; conditions: at 1 µM
T1 sequence (whole entry): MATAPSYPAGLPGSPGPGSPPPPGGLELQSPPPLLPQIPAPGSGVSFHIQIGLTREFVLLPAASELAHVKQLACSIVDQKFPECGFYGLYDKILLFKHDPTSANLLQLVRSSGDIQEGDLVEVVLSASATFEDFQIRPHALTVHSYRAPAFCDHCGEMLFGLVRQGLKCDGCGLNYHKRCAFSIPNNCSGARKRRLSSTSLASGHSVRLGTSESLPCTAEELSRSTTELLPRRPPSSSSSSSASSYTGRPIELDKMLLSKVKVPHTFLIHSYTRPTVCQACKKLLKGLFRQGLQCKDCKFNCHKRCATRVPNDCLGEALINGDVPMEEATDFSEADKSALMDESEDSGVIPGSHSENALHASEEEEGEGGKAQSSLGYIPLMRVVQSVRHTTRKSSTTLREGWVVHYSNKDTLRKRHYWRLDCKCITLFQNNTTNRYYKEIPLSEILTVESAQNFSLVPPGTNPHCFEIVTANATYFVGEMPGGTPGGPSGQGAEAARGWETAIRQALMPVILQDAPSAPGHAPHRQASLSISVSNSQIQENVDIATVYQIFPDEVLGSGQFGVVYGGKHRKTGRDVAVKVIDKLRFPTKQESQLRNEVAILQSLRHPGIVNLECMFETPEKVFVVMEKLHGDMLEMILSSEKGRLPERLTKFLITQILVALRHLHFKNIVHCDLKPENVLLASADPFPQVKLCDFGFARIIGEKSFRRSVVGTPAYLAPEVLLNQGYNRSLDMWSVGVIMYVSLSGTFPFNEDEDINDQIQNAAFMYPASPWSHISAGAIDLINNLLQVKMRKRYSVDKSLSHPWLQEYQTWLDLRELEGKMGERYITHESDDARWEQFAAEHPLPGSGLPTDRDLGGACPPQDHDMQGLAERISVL

[7] = molecular target: Macrophage-stimulating protein receptor (Homo sapiens, UniProt Q04912); test: Selectivity interaction (Kinase screening (Nanosyn)) EUB0000604a MST1R
[8] = molecular target: Serine/threonine-protein kinase 10 (Homo sapiens) (UniProt O94804); test: Selectivity interaction (Ambit KINOMEscan and KiNATiv profiling in Jurkat cells) EUB0000090b STK10; type: cell-based; conditions: at 1 µM
[9] = molecular target: T2, Mitogen-activated protein kinase kinase kinase 5 (Homo sapiens) (UniProt Q99683); test: Selectivity interaction (KinomeScan (DiscoverX)) EUB0000090b MAP3K5; conditions: at 1 µM
T2 sequence (whole entry): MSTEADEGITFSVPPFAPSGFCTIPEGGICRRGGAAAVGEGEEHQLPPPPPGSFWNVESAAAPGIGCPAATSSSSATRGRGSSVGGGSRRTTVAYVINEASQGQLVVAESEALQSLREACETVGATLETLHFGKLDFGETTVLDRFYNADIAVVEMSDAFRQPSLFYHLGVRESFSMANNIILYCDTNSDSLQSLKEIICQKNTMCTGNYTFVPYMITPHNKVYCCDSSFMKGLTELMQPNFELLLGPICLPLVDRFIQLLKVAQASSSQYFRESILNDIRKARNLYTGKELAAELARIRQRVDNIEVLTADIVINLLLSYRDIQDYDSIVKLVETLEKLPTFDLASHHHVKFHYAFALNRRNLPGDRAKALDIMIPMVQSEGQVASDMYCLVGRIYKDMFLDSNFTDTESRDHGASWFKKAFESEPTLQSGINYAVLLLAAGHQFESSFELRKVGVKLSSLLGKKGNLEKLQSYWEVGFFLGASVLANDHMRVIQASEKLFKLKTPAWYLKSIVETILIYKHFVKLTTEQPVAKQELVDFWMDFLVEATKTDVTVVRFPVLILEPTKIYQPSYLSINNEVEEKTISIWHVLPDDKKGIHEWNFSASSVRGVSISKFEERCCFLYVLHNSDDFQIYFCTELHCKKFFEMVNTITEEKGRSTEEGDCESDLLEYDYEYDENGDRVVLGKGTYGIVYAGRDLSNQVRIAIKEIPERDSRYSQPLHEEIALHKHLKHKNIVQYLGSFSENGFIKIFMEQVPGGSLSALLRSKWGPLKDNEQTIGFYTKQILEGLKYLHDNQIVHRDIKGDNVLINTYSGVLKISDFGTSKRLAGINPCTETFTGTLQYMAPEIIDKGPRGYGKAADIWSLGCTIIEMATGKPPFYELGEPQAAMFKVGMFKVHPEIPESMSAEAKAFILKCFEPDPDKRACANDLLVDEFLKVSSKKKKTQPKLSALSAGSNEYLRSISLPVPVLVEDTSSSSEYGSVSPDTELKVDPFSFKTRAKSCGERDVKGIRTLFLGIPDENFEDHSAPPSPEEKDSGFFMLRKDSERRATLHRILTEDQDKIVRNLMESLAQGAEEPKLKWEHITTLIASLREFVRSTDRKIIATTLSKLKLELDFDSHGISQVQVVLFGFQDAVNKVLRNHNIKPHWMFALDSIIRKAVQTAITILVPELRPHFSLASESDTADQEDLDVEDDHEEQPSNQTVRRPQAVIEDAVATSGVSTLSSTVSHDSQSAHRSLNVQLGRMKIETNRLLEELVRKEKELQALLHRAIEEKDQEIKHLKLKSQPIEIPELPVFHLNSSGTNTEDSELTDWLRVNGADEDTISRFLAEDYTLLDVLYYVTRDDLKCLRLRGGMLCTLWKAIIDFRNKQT

P2Y purinoceptor 2 (Homo sapiens), sequence (P41231 whole entry): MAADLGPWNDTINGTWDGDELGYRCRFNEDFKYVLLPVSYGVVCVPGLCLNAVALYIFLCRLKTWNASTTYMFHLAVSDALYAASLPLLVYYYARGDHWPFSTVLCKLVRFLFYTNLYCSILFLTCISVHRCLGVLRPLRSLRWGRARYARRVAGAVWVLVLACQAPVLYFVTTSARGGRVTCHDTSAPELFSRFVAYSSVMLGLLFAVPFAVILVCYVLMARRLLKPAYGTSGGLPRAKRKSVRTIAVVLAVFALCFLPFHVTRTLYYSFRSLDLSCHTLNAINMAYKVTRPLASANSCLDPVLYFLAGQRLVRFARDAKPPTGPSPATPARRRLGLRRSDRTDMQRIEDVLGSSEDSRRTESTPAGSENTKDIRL
Serine/threonine-protein kinase 10 (Homo sapiens), sequence (O94804 whole entry, looked up): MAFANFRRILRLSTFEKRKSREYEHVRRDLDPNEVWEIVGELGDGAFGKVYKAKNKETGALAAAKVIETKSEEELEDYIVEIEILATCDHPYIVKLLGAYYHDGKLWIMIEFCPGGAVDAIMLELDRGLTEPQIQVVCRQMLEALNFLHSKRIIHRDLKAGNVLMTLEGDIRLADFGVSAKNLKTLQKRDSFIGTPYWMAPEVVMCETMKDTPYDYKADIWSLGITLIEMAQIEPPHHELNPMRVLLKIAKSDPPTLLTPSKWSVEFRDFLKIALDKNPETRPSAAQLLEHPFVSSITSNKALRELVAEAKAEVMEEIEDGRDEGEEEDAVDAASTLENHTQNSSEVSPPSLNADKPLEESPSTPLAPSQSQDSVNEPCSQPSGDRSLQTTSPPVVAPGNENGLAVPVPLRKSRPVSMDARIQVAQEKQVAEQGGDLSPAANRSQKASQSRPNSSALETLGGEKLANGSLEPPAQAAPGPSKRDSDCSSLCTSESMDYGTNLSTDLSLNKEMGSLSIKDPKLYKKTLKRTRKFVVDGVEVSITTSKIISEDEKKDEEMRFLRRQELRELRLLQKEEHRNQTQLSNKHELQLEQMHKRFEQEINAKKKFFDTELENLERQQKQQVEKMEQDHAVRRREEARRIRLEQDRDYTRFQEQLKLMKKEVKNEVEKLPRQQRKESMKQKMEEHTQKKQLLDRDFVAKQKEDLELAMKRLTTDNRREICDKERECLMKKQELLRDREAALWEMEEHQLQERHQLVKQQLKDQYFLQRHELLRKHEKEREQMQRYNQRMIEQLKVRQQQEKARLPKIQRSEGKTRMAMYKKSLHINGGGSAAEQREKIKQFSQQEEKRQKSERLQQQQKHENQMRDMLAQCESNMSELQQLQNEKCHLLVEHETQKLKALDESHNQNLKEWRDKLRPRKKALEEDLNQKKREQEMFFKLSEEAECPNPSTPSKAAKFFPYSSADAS
Macrophage-stimulating protein receptor, sequence (Q04912 25-304 limits assumed): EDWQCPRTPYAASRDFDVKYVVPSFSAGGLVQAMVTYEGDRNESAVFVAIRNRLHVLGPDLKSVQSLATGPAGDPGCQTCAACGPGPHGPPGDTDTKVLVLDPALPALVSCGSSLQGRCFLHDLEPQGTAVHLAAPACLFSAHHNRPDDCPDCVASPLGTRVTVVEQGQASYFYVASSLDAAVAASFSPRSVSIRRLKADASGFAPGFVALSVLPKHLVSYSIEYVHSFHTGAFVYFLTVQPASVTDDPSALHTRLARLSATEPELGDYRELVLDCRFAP
Macrophage-stimulating protein receptor, sequence (Q04912 310-1400 limits assumed): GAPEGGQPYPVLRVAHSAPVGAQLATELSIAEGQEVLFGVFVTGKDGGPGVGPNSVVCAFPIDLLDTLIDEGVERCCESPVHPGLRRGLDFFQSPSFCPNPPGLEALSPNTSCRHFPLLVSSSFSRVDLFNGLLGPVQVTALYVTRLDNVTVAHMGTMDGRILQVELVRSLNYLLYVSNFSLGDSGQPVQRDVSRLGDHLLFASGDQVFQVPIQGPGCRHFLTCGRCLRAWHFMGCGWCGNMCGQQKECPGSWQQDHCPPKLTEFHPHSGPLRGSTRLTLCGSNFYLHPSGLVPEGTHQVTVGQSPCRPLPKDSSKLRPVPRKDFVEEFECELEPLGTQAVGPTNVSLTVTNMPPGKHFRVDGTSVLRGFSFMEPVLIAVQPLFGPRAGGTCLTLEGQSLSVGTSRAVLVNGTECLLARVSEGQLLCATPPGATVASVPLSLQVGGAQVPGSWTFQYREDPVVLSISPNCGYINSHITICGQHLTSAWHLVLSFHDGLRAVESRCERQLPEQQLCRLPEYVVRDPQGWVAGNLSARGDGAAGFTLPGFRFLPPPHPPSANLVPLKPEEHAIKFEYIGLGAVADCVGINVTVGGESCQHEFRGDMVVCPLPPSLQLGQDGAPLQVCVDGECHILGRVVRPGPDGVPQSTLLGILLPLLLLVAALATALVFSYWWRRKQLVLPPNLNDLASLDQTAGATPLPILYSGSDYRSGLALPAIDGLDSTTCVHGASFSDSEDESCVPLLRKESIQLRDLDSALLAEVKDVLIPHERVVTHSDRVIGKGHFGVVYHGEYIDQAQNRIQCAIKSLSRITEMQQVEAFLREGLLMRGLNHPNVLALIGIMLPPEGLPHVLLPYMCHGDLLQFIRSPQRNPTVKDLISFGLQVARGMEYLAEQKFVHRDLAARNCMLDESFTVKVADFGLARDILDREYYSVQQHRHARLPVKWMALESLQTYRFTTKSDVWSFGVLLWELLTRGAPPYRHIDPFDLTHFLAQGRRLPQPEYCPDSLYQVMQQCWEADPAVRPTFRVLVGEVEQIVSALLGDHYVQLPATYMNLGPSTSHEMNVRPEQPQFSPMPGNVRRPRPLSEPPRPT
Aurora kinase A, sequence (O14965 whole entry): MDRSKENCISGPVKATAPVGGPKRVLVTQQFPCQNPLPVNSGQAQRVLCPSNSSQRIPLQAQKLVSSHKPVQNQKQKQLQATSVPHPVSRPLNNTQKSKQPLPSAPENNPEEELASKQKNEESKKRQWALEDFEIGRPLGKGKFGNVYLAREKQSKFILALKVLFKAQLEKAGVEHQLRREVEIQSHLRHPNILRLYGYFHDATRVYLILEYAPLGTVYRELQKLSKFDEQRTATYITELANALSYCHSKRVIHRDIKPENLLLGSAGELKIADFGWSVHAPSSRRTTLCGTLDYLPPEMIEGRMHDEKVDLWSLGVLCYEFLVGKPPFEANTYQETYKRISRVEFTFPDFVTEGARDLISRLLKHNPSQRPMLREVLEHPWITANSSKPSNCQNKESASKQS
Tyrosine-protein kinase JAK1, sequence (P23458 whole entry): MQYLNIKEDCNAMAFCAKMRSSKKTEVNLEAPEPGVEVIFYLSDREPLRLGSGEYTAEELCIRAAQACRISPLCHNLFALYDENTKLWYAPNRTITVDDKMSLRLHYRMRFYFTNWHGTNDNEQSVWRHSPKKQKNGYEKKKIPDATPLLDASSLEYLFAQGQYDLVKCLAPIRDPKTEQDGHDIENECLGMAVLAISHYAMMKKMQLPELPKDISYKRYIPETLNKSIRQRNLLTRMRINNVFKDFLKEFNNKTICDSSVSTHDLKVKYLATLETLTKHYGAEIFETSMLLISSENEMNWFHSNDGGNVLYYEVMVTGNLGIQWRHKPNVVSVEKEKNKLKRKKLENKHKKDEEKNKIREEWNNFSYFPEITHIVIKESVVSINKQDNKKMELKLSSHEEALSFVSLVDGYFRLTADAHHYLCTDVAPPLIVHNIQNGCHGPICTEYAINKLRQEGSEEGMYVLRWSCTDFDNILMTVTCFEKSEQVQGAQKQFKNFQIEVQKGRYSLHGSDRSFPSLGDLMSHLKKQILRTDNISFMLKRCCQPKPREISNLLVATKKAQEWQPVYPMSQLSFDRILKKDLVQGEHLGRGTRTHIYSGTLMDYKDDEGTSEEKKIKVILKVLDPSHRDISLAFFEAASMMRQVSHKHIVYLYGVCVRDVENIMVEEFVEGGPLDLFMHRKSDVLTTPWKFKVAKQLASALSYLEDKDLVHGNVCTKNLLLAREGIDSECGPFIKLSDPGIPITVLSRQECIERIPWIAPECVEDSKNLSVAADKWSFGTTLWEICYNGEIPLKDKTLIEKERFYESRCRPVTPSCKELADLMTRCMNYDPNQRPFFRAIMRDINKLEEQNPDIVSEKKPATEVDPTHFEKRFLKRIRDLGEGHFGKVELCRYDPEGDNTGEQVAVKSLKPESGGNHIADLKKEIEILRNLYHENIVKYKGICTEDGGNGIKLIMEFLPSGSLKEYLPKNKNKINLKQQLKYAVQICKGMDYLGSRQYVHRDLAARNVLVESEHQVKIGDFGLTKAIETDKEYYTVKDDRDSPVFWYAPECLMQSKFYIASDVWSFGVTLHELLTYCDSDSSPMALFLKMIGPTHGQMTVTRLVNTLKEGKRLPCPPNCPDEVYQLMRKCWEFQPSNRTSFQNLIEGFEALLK
Mitogen-activated protein kinase 14, sequence (Q16539 whole entry): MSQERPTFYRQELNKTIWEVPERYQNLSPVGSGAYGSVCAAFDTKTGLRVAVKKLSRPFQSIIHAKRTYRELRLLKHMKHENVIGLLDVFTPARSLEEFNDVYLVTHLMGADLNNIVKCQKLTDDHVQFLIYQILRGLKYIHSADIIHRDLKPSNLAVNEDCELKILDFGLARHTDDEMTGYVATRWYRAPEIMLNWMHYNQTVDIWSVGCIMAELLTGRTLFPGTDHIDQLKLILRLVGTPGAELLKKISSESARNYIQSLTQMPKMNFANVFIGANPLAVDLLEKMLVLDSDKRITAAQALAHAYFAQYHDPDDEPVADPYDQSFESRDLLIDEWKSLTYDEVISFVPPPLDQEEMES

`CC(=O)c1cc(-c2ccccc2OCC2CC2)c2ncccn12` was tested. Which % of control [1] did it give?
The % of control was 84%.

How did the % of control [2] turn out when `O=C(NOC[C@H](O)CO)c1ccc(F)c(F)c1Nc1ccc(I)cc1F` was run?
The % of control was 100%.

How did the % of inhibition [3] turn out when `CN1Cc2nccc(-c3cn(C)nc3-c3ccc(F)cc3)c2C1=O` was run?
Its % of inhibition is 37%.

How did the % of inhibition [4] turn out when `CC[C@@H]1[C@H](F)C(=O)N[C@@H]1COc1nccc2cc(C(N)=O)c(OC)cc12` [ZIMLOVISERTIB] was run?
The % of inhibition was -6.1%.

How did the IC50 (Aurora kinase A) turn out when `CCc1cc(Nc2nccc(-c3c(-c4ccc(OC)c(C(=O)Nc5c(F)cccc5F)c4)nc4ccccn34)n2)c(OC)cc1N1CCC(N2CCN(S(C)(=O)=O)CC2)CC1` was run?
Its IC50 is greater than 1.5 µM.

How did the % of control [5] turn out when `COc1cc(Nc2nc(C)cc(-c3cnn4nc(OC)ccc34)n2)cc(C(F)(F)F)c1` was run?
Its % of control is 100%.

What about the % of control [6] of the same molecule?
The % of control was 100%.

With `Cc1cnc(Nc2ccc(F)cc2Cl)nc1-c1c[nH]c(C(=O)N[C@H](CO)c2cccc(Cl)c2)c1` as the molecule, how does the % of inhibition [7] read?
The % of inhibition was 1%.

Which results are given for `CN(C)C/C=C/C(=O)Nc1ccc(C(=O)N2CCCC(Nc3ncc(Cl)c(-c4c[nH]c5ccccc45)n3)C2)cc1` (stereo not given)?
% of control [8]: 80%; % of control [9]: 88%
